{"source": "paper PMC4440699", "about": "(MedChemComm, 2014)", "key": {"[1]": {"assay": "Zinc binding affinity by isothermal calorimetry", "settings": "ITC, 25 °C"}, "[2]": {"target": "T1, HDAC8 (Homo sapiens, UniProt Q9BY41)", "T1 sequence (Q9BY41 1-377)": "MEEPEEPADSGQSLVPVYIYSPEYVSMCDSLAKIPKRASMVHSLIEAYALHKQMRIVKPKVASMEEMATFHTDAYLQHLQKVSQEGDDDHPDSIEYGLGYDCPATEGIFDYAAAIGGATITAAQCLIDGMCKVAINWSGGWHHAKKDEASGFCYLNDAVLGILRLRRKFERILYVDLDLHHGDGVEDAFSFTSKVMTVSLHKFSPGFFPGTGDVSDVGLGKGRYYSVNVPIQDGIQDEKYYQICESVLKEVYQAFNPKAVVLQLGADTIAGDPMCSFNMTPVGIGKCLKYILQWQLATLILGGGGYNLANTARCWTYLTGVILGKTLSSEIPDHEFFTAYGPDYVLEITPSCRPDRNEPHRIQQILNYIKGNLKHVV", "assay": "HDAC8 inhibition, human recombinant HDAC isoform survey", "format": "biochemical"}, "[3]": {"test_system": "acetylated H3K9", "settings": "MV-4-11 cells"}, "[4]": {"test_system": "p21^WAF1/CIP1", "assay": "p21WAF1/CIP1 levels in MV-4-11 leukemia cells by Western blotting", "format": "cell-based", "settings": "MV-4-11 cells"}, "[5]": {"target": "HDAC1 (Homo sapiens, UniProt Q13547)", "sequence (Q13547 whole entry, canonical isoform)": "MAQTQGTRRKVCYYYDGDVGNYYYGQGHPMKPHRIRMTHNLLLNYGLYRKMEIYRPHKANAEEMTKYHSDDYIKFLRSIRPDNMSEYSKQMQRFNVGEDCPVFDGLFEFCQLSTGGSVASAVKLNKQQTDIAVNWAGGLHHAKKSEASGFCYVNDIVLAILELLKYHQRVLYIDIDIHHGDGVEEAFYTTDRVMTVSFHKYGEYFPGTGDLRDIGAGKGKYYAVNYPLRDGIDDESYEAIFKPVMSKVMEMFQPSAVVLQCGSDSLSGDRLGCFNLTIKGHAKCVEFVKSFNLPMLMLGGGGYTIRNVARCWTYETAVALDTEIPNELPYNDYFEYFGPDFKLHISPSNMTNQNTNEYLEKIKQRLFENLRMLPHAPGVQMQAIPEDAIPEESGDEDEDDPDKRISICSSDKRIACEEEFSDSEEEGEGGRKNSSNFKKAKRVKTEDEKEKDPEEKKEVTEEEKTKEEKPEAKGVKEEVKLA", "assay": "HDAC1 inhibition, human recombinant HDAC isoform survey", "format": "biochemical"}, "[6]": {"test_system": "MV-4-11 leukemia cells", "assay": "Growth inhibition of cultured MV-4-11 leukemia cells", "format": "cell-based", "settings": "for growth inhibitor activity in the MV-4-11 cell line: 24 hours exposure, 1 to 100 μM"}, "[7]": {"assay": "Solubility observations", "format": "physicochemical", "settings": "greater concentration required more than 1% DMSO"}, "[8]": {"target": "T2, HDAC10 (Homo sapiens, UniProt Q969S8)", "T2 sequence (Q969S8 1-669)": "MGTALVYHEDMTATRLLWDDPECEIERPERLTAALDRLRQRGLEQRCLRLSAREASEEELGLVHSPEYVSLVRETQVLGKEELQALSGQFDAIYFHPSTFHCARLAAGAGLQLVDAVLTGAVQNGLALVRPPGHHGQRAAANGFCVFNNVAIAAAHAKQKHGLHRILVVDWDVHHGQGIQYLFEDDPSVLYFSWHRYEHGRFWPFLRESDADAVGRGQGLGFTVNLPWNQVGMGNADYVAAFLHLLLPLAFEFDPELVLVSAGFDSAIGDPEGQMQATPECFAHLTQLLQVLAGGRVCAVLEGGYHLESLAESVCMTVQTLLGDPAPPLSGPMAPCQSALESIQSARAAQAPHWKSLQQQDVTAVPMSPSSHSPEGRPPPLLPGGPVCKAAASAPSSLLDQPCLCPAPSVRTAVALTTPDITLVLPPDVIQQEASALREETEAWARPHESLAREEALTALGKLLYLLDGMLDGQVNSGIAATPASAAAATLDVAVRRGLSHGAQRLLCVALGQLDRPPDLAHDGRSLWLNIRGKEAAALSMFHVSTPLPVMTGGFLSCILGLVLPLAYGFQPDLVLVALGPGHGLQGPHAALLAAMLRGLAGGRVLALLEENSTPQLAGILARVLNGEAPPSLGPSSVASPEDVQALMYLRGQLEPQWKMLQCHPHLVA", "assay": "HDAC10 inhibition, human recombinant HDAC isoform survey", "format": "biochemical", "settings": "from % inhibition at 20 μM"}}}
{"compound": "O=C(NC(c1ccccc1)c1ccccc1)c1coc(-c2ccccc2O)n1", "note": "[Compound 10]", "values": [{"measurement": "ΔG, binding to Zn^++", "setting": "[1]", "value": -5.103, "unit": "kcal/mol"}, {"measurement": "KA, binding to Zn^++", "setting": "[1]; compound in methanol, zinc in 50mM HEPES pH 7.0", "value": "4,937 M^-1"}, {"measurement": "inhibitory activity against HDAC8", "setting": "[2]", "value": "very poor inhibitory activity"}, {"measurement": "amount of acetylated H3K9 induced relative to 0.5 μM of SAHA", "setting": "[3]", "value": "comparable amount"}, {"measurement": "concentration producing an increase in H3K9 acetylation equivalent to 0.5 μM SAHA", "setting": "[3]; Western blot", "value": 2.5, "unit": "µM"}, {"measurement": "concentration with measurable increase in cellular levels of acetylated H3K9", "setting": "[3]; Western blot", "value": "≥ 2.5", "unit": "µM"}, {"measurement": "change in H3K9 acetylation", "setting": "[3]; concentrations between 1.0 and 10 μM", "value": "dose-dependent change in acetylation"}, {"measurement": "amount of p21Waf1/CIP1 induced relative to 0.5 μM of SAHA", "setting": "[4]", "value": "comparable amount"}, {"measurement": "p21^WAF1/CIP1 expression", "setting": "[4]; concentrations between 1.0 and 10.0 μM", "value": "dose-dependent increase"}, {"measurement": "IC50", "setting": "[5]", "value": "< 20", "unit": "µM"}, {"measurement": "difference in cellular IC50 value against MV4-11 cells between SAHA and compound 10", "setting": "[6]; SAHA 0.7 μM vs 10 7.5 μM", "value": 10.7, "unit": "fold"}, {"measurement": "solution concentration attainable without more than 1% DMSO", "setting": "[7]", "value": "≤ 20", "unit": "µM"}]}
{"compound": "O=C(NCCC(c1ccccc1)c1ccccc1)c1coc(-c2ccccc2O)n1", "note": "[Compound 12]", "values": [{"measurement": "growth inhibitor activity in the MV-4-11 cell line", "setting": "[6]", "value": "inactive"}]}
{"compound": "O=C(Nc1ccc(-c2ccccc2)cc1)c1coc(-c2ccccc2O)n1", "note": "[Compound 13]", "values": [{"measurement": "growth inhibitor activity in the MV-4-11 cell line", "setting": "[6]", "value": "inactive"}]}
{"compound": "O=C(NCc1ccc(-c2ccccc2)cc1)c1coc(-c2ccccc2O)n1", "note": "[Compound 14]", "values": [{"measurement": "growth inhibitor activity in the MV-4-11 cell line", "setting": "[6]", "value": "inactive"}]}
{"compound": "O=C(NCCCCNC(=S)NCCC(c1ccccc1)c1ccccc1)c1coc(-c2ccccc2O)n1", "note": "[Compound 19]", "values": [{"measurement": "isoform selectivity", "setting": "[8]", "value": "moderately selective for HDAC10"}]}
{"compound": "O=C(Nc1ccccc1)c1ccc(CNC(=O)c2coc(-c3ccccc3O)n2)cc1", "note": "[Compound 23]", "values": [{"measurement": "isoform selectivity", "setting": "[8]", "value": "moderately selective for HDAC10"}]}
{"compound": "O=C(CNC(=O)c1coc(-c2ccccc2O)n1)Nc1ccccc1", "note": "[Compound 24]", "values": [{"measurement": "isoform selectivity", "setting": "[8]", "value": "moderately selective for HDAC10"}]}
